Structures can show the parent of a compound that is named as a salt.
Key:
[1] = target: T1, human FGFR2 (Homo sapiens, UniProt P21802); experiment: 33P isotope-labeled kinase activity test (Reaction Biology Corp), FGFR2; type: biochemical; settings: 33P-ATP 5 μM, kinase 0.45 nM, 120 min room temperature
T1 construct: purchased Invitrogen PV3368
Protocol: (§1) The IC50 value was determined using ^33P isotope-labeled kinase activity test (Reaction Biology Corp) to evaluate the inhibitory ability of the compounds to be tested on human FGFR1, FGFR2 and VEGFR2.
(§2) Buffer conditions: 20 mM Hepes (pH 7.5), 10 mM MgCl2, 1 mM EGTA, 0.02% Brij35, 0.02 mg/mL BSA, 0.1 mM Na3VO4, 2 mM DTT, 1% DMSO.
(§3) Test steps: At room temperature, the compounds to be tested were dissolved in DMSO to prepare a 10 mM solution for use. The substrate was dissolved in the newly-prepared buffer, and the kinase to be tested was added thereto and mixed well. The DMSO solution in which the compounds to be tested were dissolved was added to the above-mentioned homogeneous reaction solution using acoustic technology (Echo 550). […] After incubating for 15 minutes, to the reaction solution was added ^33P-ATP (activity: 0.01 μCi/μL, with corresponding concentration listed in Table 10) to start the reaction. […] The kinase activity data was expressed by comparing the kinase activity of the groups containing the compounds to be tested with that of the blank group (containing only DMSO). The IC50 value was obtained by curve fitting using Prism4 software (GraphPad), and the experimental results were shown in Table 11.

[2] = target: T2, human VEGFR2 (Homo sapiens, UniProt P35968); experiment: 33P isotope-labeled kinase activity test (Reaction Biology Corp), VEGFR2; type: biochemical; settings: 33P-ATP 20 μM, kinase 1 nM, 120 min room temperature
T2 construct: purchased Invitrogen PR5992C
Protocol: as §1, §2, §3

[3] = system: human gastric cancer SNU-16 cells expressing FGFR2; experiment: Cell activity (proliferation) test of gastric cancer cell line SNU-16, CellTiter-Glo; type: cell-based; settings: inhibition of proliferation
Protocol: To test the inhibitory effect of the compounds on the proliferation of human gastric cancer SNU-16 cells expressing FGFR2.
The compounds used in the test were subjected to 3-fold concentration dilution, the concentration starting from 10 μM and subjected to […], resulting in 9 concentrations: 10 μM, 2.50 μM, 0.62 μM, 0.156 μM, 39.1 nM, 9.8 nM, 2.4 nM, 0.61 nM, and 0.15 nM.
(1) Promega CellTiter-Glo luminescent cell viability assay kit (Promega-G7573).
(2) 2104 EnVision multi-tag reader, PerkinElmer.
The inhibition rate of different doses of the compounds would be calculated in the Excel file, and the IC50 data was obtained by parametric curve fitting (GraphPad Software).

[4] = target: T3, human FGFR1 (Homo sapiens, UniProt P11362); experiment: 33P isotope-labeled kinase activity test (Reaction Biology Corp), FGFR1; type: biochemical; settings: 33P-ATP 5 μM, kinase 1.5 nM, 120 min room temperature
T3 construct: purchased Invitrogen PV3146
Protocol: as §1, §2, §3

T2 sequence (P35968 20-1356): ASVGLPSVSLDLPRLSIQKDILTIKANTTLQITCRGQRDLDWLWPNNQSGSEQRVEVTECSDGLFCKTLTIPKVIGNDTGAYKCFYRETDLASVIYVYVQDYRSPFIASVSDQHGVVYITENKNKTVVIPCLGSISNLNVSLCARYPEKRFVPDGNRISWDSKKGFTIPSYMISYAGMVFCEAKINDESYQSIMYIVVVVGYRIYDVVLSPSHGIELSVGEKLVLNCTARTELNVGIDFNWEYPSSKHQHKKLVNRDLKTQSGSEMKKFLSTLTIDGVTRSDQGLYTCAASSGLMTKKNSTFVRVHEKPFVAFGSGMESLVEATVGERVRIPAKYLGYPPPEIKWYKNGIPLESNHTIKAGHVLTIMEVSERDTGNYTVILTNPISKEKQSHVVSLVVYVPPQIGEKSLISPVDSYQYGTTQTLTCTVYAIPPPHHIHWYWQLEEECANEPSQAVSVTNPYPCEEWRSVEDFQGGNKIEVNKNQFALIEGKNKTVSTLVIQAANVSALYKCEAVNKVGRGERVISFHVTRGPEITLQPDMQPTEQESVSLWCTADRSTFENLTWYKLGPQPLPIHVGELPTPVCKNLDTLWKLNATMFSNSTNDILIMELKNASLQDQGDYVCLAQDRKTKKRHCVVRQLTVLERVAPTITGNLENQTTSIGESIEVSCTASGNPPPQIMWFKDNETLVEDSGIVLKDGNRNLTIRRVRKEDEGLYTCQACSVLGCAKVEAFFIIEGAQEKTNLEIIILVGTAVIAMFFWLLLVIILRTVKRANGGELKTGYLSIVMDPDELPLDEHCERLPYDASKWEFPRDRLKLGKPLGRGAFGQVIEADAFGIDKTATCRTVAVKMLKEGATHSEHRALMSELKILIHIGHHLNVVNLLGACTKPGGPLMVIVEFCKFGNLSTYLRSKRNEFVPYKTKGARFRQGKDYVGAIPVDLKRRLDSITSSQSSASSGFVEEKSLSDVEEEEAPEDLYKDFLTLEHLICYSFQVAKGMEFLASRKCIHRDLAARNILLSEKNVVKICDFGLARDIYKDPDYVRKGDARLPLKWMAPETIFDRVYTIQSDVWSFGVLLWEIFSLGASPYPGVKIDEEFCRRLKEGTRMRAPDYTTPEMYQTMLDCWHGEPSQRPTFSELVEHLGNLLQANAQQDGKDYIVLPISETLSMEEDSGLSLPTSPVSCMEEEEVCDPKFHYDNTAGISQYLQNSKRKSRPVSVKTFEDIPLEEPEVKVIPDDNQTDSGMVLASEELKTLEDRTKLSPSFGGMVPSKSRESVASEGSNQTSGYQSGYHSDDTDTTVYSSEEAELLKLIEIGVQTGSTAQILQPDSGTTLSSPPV
T1 sequence (P21802 22-821): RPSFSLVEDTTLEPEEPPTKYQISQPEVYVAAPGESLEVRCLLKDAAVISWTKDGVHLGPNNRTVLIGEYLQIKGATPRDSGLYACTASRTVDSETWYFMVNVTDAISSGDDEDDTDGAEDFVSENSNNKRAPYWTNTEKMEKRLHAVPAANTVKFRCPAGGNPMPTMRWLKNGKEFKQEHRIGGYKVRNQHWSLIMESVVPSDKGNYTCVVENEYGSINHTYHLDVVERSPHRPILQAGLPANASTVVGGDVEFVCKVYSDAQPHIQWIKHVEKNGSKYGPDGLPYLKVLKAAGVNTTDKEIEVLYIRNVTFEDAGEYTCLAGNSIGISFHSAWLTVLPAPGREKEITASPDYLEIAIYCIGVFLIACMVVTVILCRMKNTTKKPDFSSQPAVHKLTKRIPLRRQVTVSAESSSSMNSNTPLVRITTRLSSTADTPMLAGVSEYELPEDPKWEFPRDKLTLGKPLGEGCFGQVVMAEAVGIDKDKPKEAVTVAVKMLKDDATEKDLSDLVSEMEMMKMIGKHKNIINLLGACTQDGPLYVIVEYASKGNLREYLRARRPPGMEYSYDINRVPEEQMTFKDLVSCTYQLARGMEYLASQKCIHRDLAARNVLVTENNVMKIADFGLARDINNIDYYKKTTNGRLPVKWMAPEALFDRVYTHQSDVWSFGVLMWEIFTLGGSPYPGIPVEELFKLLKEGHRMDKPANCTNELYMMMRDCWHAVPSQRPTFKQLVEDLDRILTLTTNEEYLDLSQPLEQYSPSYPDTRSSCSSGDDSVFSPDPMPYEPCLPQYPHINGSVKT
T3 sequence (P11362 22-822): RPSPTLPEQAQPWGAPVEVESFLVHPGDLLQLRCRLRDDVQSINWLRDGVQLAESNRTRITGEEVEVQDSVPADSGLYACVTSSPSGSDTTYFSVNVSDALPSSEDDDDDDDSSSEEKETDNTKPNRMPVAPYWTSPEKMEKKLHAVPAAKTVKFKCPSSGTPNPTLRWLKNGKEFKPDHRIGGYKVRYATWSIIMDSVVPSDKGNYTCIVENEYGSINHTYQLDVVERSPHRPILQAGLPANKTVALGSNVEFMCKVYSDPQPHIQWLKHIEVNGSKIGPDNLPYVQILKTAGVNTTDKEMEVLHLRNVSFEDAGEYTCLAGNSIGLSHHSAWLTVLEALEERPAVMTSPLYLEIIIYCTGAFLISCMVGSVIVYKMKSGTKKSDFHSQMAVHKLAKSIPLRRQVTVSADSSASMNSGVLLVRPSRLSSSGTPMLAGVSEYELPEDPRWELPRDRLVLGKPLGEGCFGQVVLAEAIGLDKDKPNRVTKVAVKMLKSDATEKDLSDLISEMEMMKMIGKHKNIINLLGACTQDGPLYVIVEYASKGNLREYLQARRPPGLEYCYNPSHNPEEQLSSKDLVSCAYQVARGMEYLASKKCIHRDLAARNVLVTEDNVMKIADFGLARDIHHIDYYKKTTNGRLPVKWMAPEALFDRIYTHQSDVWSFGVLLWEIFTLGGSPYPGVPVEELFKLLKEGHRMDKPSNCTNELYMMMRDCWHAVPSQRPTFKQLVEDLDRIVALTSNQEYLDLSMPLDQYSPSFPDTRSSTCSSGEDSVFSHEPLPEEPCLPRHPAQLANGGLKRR

Row | Compound | IC50 [1] | further results
1 | Cn1cc(-c2ccc3c(-c4cc(-c5ccc(F)cc5F)cc(NS(=O)(=O)C5CC5)n4)cnn3c2)cn1 [Compound 42] | 1.06 nM | –
2 | CCS(=O)(=O)Nc1cc(-c2ccc(F)cc2F)cc(-c2cnn3cc(-c4cnn(C)c4)ccc23)n1 [Compound 43] | 0.47 nM | –
3 | CS(=O)(=O)Nc1cc(-c2ncc(F)cc2F)cc(-c2cnn3cc(-c4cnn(CCN5CCOCC5)c4)ccc23)c1 [Compound 38] | 0.72 nM | –
4 | Cn1cc(-c2ccc3c(-c4cc(NCC5COC(C)(C)O5)cc(-c5ncc(F)cc5F)c4)cnn3c2)cn1 (stereo not shown) [Compound 48] | 0.95 nM | IC50 [2]: 8.39 nM
5 | Cn1nccc1-c1ccc2c(-c3cc(NS(C)(=O)=O)cc(-c4ccc(F)cc4F)c3)cnn2c1 [Compound 28] | 359 nM | –
6 | CC(C)(O)Cn1cc(-c2ccc3c(-c4cc(NS(C)(=O)=O)cc(-c5ncc(F)cc5F)c4)cnn3c2)cn1 [Compound 31] | 1.79 nM | –
7 | CN1CCC(n2cc(-c3ccc4c(-c5cc(NS(C)(=O)=O)cc(-c6ccc(F)cc6F)c5)cnn4c3)cn2)CC1 [Compound 30] | 0.3 nM | –
8 | CS(=O)(=O)Nc1cc(-c2cnn3cc(-c4cnn(CCN5CCOCC5)c4)ccc23)cc(-c2ccc(F)cc2F)n1 [Trifluoroacetate salt of compound 29] | 3.98 nM | –
9 | CN1CCC(n2cc(-c3ccc4c(-c5cc(NS(C)(=O)=O)cc(-c6ncc(F)cc6F)c5)cnn4c3)cn2)CC1 [Compound 36] | 0.23 nM | –
10 | Cn1cc(-c2ccc3c(-c4cc(NS(C)(=O)=O)nc(-c5ccc(F)cc5F)c4)cnn3c2)cn1 [Compound 12] | 3.74 nM | –
11 | Cn1cc(-c2ccc3c(-c4cc(NS(C)(=O)=O)cc(-c5ccc(F)cc5F)c4)cnn3c2)nn1 [Trifluoroacetate salt of compound 26] | 1.98 nM | IC50 [2]: 2.74 nM
12 | CS(=O)(=O)Nc1cc(-c2ncc(F)cc2F)cc(-c2cnn3cc(C4CC4)ccc23)c1 [Compound 35] | 49.2 nM | –
13 | Cn1cc(-c2ccc3c(-c4cc(NS(=O)(=O)C5CC5)cc(-c5ccc(F)nc5F)c4)cnn3c2)cn1 [Compound 8] | 65.3 nM | –
14 | Cn1cc(-c2ccc3c(-c4cc(NCC(C)(C)O)cc(-c5ccc(F)cc5F)c4)cnn3c2)cn1 [Compound 54] | 10.6 nM | –
15 | CN(C)CCn1cc(-c2ccc3c(-c4cc(NS(C)(=O)=O)cc(-c5ccc(F)cc5F)c4)cnn3c2)cn1 [Compound 20] | 0.23 nM | IC50 [3]: 7.5 nM
16 | CS(=O)(=O)Nc1cc(-c2ncc(F)cc2F)cc(-c2cnn3cc(-c4cnn(CC(O)CO)c4)ccc23)c1 (stereo not shown) [Compound 34] | 0.42 nM | IC50 [2]: 0.29 nM
17 | CONC(=O)Nc1cc(-c2ccc(F)cc2F)cc(-c2cnn3cc(-c4cnn(C)c4)ccc23)c1 [Compound 24] | 10.1 nM | –
18 | Cn1cc(-c2ccc3c(c2)ncn3-c2cc(NS(=O)(=O)C3CC3)cc(-c3ccc(F)cc3F)c2)cn1 [Comparative example 1, reference compound] | – | IC50 [3]: 62 nM
19 | Cn1cc(-c2ccc3c(-c4cc(NS(C)(=O)=O)cc(-c5ccc(F)cc5F)c4)cnn3c2)nn1 [Compound 26] | – | IC50 [3]: 7.8 nM
20 | CCS(=O)(=O)Nc1cc(-c2ncc(F)cc2F)cc(-c2cnn3cc(-c4cnn(C)c4)ccc23)c1 [Trifluoroacetate salt of compound 33] | 1.21 nM | IC50 [3]: 6.2 nM
21 | Cn1cc(-c2ccc3c(-c4cc(NS(=O)(=O)C5CC5)cc(-c5ncc(F)cc5F)c4)cnn3c2)cn1 [Trifluoroacetate salt of compound 11] | 0.76 nM | IC50 [2]: 0.6 nM; IC50 [3]: 10.5 nM
22 | CS(=O)(=O)Nc1cc(-c2ccc(F)cc2F)cc(-c2cnn3cc(-c4cnn(CC(O)CO)c4)ccc23)c1 (stereo not shown) [Compound 22] | 4.38 nM | IC50 [2]: 1.88 nM; IC50 [3]: 28.5 nM
23 | O=S(=O)(Nc1cc(-c2ccc(F)cc2F)cc(-c2cnn3cc(-c4cnn(C5CCNCC5)c4)ccc23)c1)C1CC1 [Hydrochloride salt of compound 51] | 1.27 nM | –
24 | Cn1cc(-c2ccc3c(-c4cc(NS(=O)(=O)C5CC5)cc(-c5ccc(F)nc5)c4)cnn3c2)cn1 [Trifluoroacetate salt of compound 9] | 73.3 nM | –
25 | O=S(=O)(Nc1cc(-c2ncc(F)cc2F)cc(-c2cnn3cc(-c4cnn(C5CCNCC5)c4)ccc23)c1)C1CC1 [Hydrochloride salt of compound 47] | 0.45 nM | –
26 | Cc1ncn(-c2ccc3c(-c4cc(NS(C)(=O)=O)cc(-c5ccc(F)cc5F)c4)cnn3c2)n1 [Compound 19] | 88.6 nM | –

Row | Compound | IC50 [1] | further results
27 | Cn1cc(-c2ccc3c(-c4cc(NS(=O)(=O)C5CC5)nc(-c5ccc(F)cc5F)c4)cnn3c2)cn1 [Compound 14] | – | IC50 [4]: 10.3 nM
28 | CC(C)Nc1cc(-c2ccc(F)cc2F)cc(-c2cnn3cc(-c4cnn(C)c4)ccc23)c1 [Compound 6] | – | IC50 [4]: 17 nM
29 | CCS(=O)(=O)Nc1cc(-c2ccc(F)cc2F)cc(-c2cnn3cc(-n4cnc(C)n4)ccc23)c1 [Compound 17] | 142 nM | –
30 | Cn1cc(-c2ccc3c(-c4cc(NCC(C)(C)O)cc(-c5ncc(F)cc5F)c4)cnn3c2)cn1 [Compound 49] | 2.29 nM | –
31 | CS(=O)(=O)Nc1cc(-c2ncc(F)cc2F)cc(-c2cnn3cc(-c4cnn(CC5COCCN5Cc5ccccc5)c4)ccc23)c1 (stereo not shown) [Compound 45] | 29.6 nM | IC50 [2]: 11.2 nM
32 | Cn1cc(-c2ccc3c(-c4cc(NCC(O)CO)cc(-c5ccc(F)cc5F)c4)cnn3c2)cn1 (stereo not shown) [Compound 53] | 5.59 nM | IC50 [2]: 3.63 nM
33 | CS(=O)(=O)CCCn1cc(-c2ccc3c(-c4cc(NS(C)(=O)=O)cc(-c5ncc(F)cc5F)c4)cnn3c2)cn1 [Compound 40] | 0.77 nM | IC50 [2]: 1.99 nM
34 | CCS(=O)(=O)Nc1cc(-c2cnn3cc(-c4cnn(C)c4)ccc23)cc(-c2ccc(F)cc2F)n1 [Compound 13] | 2.98 nM | –
35 | CS(=O)(=O)Nc1cc(-c2ncc(F)cc2F)cc(-c2cnn3cc(-c4cnn(CC5COCCN5)c4)ccc23)c1 (stereo not shown) [Compound 44] | 0.72 nM | IC50 [2]: 1.4 nM
36 | CC(=O)Nc1cc(-c2ccc(F)cc2F)cc(-c2cnn3cc(-c4cnn(C)c4)ccc23)c1 [Compound 3] | – | IC50 [4]: 2.37 nM
37 | CS(=O)(=O)Nc1cc(-c2ncc(F)cc2F)cc(-c2cnn3cc(-c4cnn(C5CCNCC5)c4)ccc23)c1 [Hydrochloride salt of compound 37] | 0.18 nM | –
38 | Cn1cc(-c2ccc3c(-c4cc(NC(=O)NC5CC5)cc(-c5ccc(F)cc5F)c4)cnn3c2)cn1 [Compound 23] | 1.88 nM | –
39 | CS(=O)(=O)Nc1cc(-c2ccc(F)cc2F)cc(-c2cnn3cc(-c4ncn(C5CCOCC5)n4)ccc23)c1 [Compound 15] | 287 nM | –
40 | Cn1cc(-c2ccc3c(-c4cc(-c5ccc(F)cc5F)cc(NS(C)(=O)=O)n4)cnn3c2)cn1 [Compound 41] | 1.81 nM | –
41 | Cn1cc(-c2ccc3c(-c4cc(NCC5COC(C)(C)O5)cc(-c5ccc(F)cc5F)c4)cnn3c2)cn1 (stereo not shown) [Compound 52] | 6.59 nM | IC50 [2]: 21.4 nM
42 | Cn1cc(-c2ccc3c(-c4cc(NCC(O)CO)cc(-c5ncc(F)cc5F)c4)cnn3c2)cn1 (stereo not shown) [Compound 50] | 1.05 nM | IC50 [2]: 3.82 nM
43 | Cn1cnc(-c2ccc3c(-c4cc(NS(C)(=O)=O)cc(-c5ccc(F)cc5F)c4)cnn3c2)n1 [Compound 7] | – | IC50 [4]: 135 nM
44 | Cn1cnc(-c2ccc3c(-c4cc(NS(C)(=O)=O)cc(-c5ccc(F)cc5F)c4)cnn3c2)c1 [Trifluoroacetate salt of compound 27] | 2.55 nM | IC50 [3]: 11.5 nM
45 | CS(=O)(=O)Nc1cc(-c2ccc(F)cc2F)cc(-c2cnn3cc(-c4ncn(CCO)n4)ccc23)c1 [Compound 18] | 256 nM | –
46 | CS(=O)(=O)Nc1cc(-c2ccc(F)cc2F)cc(-c2cnn3cc(-c4cnn(C5CCNCC5)c4)ccc23)c1 [Hydrochloride salt of compound 21] | 0.57 nM | IC50 [3]: 9.6 nM
47 | Cc1ncn(-c2ccc3c(-c4cc(NS(=O)(=O)C5CC5)cc(-c5ccc(F)cc5F)c4)cnn3c2)n1 [Compound 16] | 312 nM | –
48 | Cn1cc(-c2ccc3c(-c4cc(NC(=O)N5CCC(O)C5)cc(-c5ccc(F)cc5F)c4)cnn3c2)cn1 (stereo not shown) [Compound 25] | 40.2 nM | IC50 [2]: 22.4 nM
49 | CS(=O)(=O)Nc1cc(-c2ncc(F)cc2F)cc(-c2cnn3cc(-c4cnn(CC5COCCO5)c4)ccc23)c1 (stereo not shown) [Compound 39] | 0.95 nM | IC50 [2]: 0.66 nM
50 | Cn1cc(-c2ccc3c(-c4cc(NS(C)(=O)=O)cc(-c5ncc(F)cc5F)c4)cnn3c2)cn1 [Trifluoroacetate salt of compound 32] | 1.09 nM | –
51 | Cn1cc(-c2ccc3c(-c4cc(NS(=O)(=O)C5CC5)cc(-c5cccnc5F)c4)cnn3c2)cn1 [Trifluoroacetate salt of compound 10] | 36.5 nM | –
